Holding throughout (assay type): biochemical
For assay [1], the target named is T1, Recombinant human AKR1C3 (17β-HSD5) protein (Homo sapiens, UniProt P42330).
T1 construct: made in house; host or cells: E. coli
T1 sequence (P42330 1-323): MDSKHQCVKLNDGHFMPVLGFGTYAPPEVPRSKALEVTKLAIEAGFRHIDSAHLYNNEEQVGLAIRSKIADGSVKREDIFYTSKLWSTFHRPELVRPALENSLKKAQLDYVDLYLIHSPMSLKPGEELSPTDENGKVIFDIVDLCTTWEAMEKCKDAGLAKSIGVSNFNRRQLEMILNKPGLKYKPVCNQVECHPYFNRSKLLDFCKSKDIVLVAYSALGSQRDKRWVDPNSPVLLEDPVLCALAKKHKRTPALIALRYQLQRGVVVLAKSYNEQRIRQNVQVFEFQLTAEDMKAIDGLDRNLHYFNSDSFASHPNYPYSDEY
The experiment in a line: Inhibition of AKR1C3 (17β-hydroxysteroid dehydrogenase type 5) enzyme, fluorescence assay. Conditions: inhibitor at 500 nM. In short, it runs like this: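 Percent inhibition at 500 nM compound, derived from substrate conversion; product alcohol measured by fluorescence (ex 420, em 510 nm) against a 1 μM–10 nM standard curve. Reaction: 27 nM recombinant AKR1C3, 1 μM ketone substrate, 1 mM NADPH, phosphate/EDTA buffer pH 7.4, 1% DMSO, RT for 60–120 min.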

The target in assay [2] is T2, Recombinant human aldo-keto reductase family 1 member C2 (AKR1C2) protein (Homo sapiens, UniProt P52895).
T2 construct: made in house; host or cells: Sf-9 insect cells (baculovirus)
T2 sequence (P52895 1-323): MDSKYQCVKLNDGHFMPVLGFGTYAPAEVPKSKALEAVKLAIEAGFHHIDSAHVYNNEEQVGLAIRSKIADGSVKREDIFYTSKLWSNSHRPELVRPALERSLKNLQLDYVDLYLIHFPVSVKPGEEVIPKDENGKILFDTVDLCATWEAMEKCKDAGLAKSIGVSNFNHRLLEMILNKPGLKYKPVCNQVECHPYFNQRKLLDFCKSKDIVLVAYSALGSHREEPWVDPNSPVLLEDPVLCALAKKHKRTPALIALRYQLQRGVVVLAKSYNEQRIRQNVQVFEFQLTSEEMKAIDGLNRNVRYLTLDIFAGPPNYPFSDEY
The experiment in a line: Inhibition of the aldo-keto reductase family 1 member C2, 3H-dihydrotestosterone conversion. Conditions: inhibitor at 10 μM. Put shortly:
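Single-point screen at 10 μM inhibitor, 1% DMSO: [3H]DHT (6.25 nM) reduction to 3α-diol by baculovirus-made AKR1C2 (13.6 nM), pH 7.4 phosphate buffer, 1 mM NADPH, 37 °C for 45 min. Radio-UPLC quantified product versus substrate to give percent inhibition.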

Assay [3] has as its target T3, 17β-Hydroxysteroid Dehydrogenase Type 2 Enzyme (17β-HSD2) (Homo sapiens, UniProt P37059).
T3 construct: made in house; host or cells: Sf-9 insect cells (baculovirus)
T3 sequence (P37059 1-387): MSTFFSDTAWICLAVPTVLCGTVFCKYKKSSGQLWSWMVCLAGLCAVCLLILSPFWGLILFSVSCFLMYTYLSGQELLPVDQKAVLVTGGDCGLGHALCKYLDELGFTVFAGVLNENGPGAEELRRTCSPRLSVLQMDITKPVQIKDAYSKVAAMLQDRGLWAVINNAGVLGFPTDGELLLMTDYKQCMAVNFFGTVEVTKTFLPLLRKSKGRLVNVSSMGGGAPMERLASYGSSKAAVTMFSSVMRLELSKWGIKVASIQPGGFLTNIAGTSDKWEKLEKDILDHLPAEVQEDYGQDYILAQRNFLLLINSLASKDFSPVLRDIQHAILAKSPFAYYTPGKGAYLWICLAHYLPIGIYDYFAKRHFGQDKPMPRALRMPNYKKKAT
The experiment in a line: Inhibition of the 17β-hydroxysteroid dehydrogenase type 2 enzyme, 3H-testosterone conversion. The note with it: inhibitor at 10 μM. In short, it runs like this: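 Single-point screen at 10 μM inhibitor, 1% DMSO: Sf-9-expressed human enzyme (105 nM), NAD 1 mM, ³H-labelled testosterone 56.25 nM, pH 8.5 phosphate/EDTA buffer, 30 min, room temperature. After TCA quench, substrate and product radioactivity quantified by UPLC with scintillation detection; inhibition percent from conversion.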

Usually inhibition stands for the drop in the measured response relative to a control, in per cent. As for `COCC1CCN(C(=O)N2CCC(=C(C#N)c3ccc(F)cc3)CC2)CC1` [Compound 106, 2-(4-fluorophenyl)-2-(1-(4-(methoxymethyl)piperidine-1-carbonyl)piperidin-4-ylidene)acetonitrile], in assay [1], the inhibition at 0.5 µM turned out to be 93%. The inhibition at 10 µM was determined as 5% in assay [2] and 2% in assay [3].
Turning to `N#CC(=C1CCN(C(=O)N2CCCC(O)CC2)CC1)c1ccc(F)cc1` (stereo not drawn) [Compound 107, 2-(4-fluorophenyl)-2-(1-(4-hydroxyazepane-1-carbonyl)piperidin-4-ylidene)acetonitrile], the inhibition at 0.5 µM in assay [1] came out at 92%. The values for the inhibition at 10 µM in assay [2] and in assay [3] were 14% and -1%, respectively.
In the case of `N#CC(=C1CCN(C(=O)N2CCc3sccc3C2)CC1)c1ccc(F)cc1` [Compound 108, 2-(4-fluorophenyl)-2-(1-(4,5,6,7-tetrahydrothieno[3,2-c]pyridine-5-carbonyl)piperidin-4-ylidene)acetonitrile], in assay [1], the inhibition at 0.5 µM is 98%. Moreover, the inhibition at 10 µM in assay [2] was 21%; in assay [3] it was -11%.
As to `N#CC(=C1CCN(C(=O)N2CCc3cc(F)ccc32)CC1)c1ccc(F)cc1` [Compound 109, 2-(1-(5-fluoroindoline-1-carbonyl)piperidin-4-ylidene)-2-(4-fluorophenyl)acetonitrile], the inhibition at 0.5 µM in assay [1] was 96%. In addition, the inhibition at 10 µM stood at 12% in assay [2] and 26% in assay [3].
In the same order, the values of `C[C@@H]1CCCCN1C(=O)N1CCC(=C(C#N)c2ccc(F)cc2)CC1` [Compound 110, (R)-2-(4-fluorophenyl)-2-(1-(2-methylpiperidine-1-carbonyl)piperidin-4-ylidene)acetonitrile] are 96%, 6% and 30%.
`N#CC(=C1CCN(C(=O)N2C[C@@H]3CC[C@@H]2C3)CC1)c1ccc(F)cc1F` [Compound 111, 2-(1-((1R,4R)-2-azabicyclo[2.2.1]heptane-2-carbonyl)piperidin-4-ylidene)-2-(2,4-difluorophenyl)acetonitrile]: the inhibition at 0.5 µM in assay [1] amounted to 95%. Besides, the inhibition at 10 µM amounted to 13% in assay [2] and 8% in assay [3].
Taken in the same sequence, the figures for `N#CC(=C1CCN(C(=O)N2CCc3sccc3C2)CC1)c1ccc(F)cc1F` [Compound 112, 2-(2,4-difluorophenyl)-2-(1-(4,5,6,7-tetrahydrothieno[3,2-c]pyridine-5-carbonyl)piperidin-4-ylidene)acetonitrile] were 96%, 30% and 17%.
On to `N#CC(=C1CCN(C(=O)N2CCc3[nH]ncc3C2)CC1)c1ccc(Cl)cc1` [Compound 113, 2-(4-chlorophenyl)-2-(1-(4,5,6,7-tetrahydro-1H-pyrazolo[4,3-c]pyridine-5-carbonyl)piperidin-4-ylidene)acetonitrile], for which the inhibition at 0.5 µM in assay [1] stood at 104%. Besides, the inhibition at 10 µM in assay [2] was 19%; in assay [3] it was 16%.
Consider `N#CC(=C1CCN(C(=O)N2CCc3sccc3C2)CC1)c1cccc2[nH]ncc12` [Compound 114, 2-(1H-indazol-4-yl)-2-(1-(4,5,6,7-tetrahydrothieno[3,2-c]pyridine-5-carbonyl)piperidin-4-ylidene)acetonitrile], for which the inhibition at 0.5 µM in assay [1] worked out at 97%. Also, the inhibition at 10 µM in assay [2] was 11%; in assay [3], 34%.
As for `N#CC(=C1CCN(C(=O)N2CCC(O)CC2)CC1)c1ccc(OC(F)(F)F)cc1` [Compound 115, 2-(1-(4-hydroxypiperidine-1-carbonyl)piperidin-4-ylidene)-2-(4-(trifluoromethoxy)phenyl)acetonitrile], in assay [1], the inhibition at 0.5 µM turned out to be 96%. The inhibition at 10 µM is 0% in assay [2] and -1% in assay [3].
For the compound `N#CC(=C1CCN(C(=O)N2CCc3[nH]ncc3C2)CC1)c1cc(F)cc(F)c1` [Compound 116, 2-(3,5-difluorophenyl)-2-(1-(4,5,6,7-tetrahydro-1H-pyrazolo[4,3-c]pyridine-5-carbonyl)piperidin-4-ylidene)acetonitrile], the inhibition at 0.5 µM in assay [1] was 98%. For the same compound, the figures for the inhibition at 10 µM in assay [2] and in assay [3] were 26% and 12%, respectively.
In the case of `N#CC(=C1CCN(C(=O)N2CCc3sccc3C2)CC1)c1ccc(OC(F)(F)F)cc1` [Compound 117, 2-(1-(4,5,6,7-tetrahydrothieno[3,2-c]pyridine-5-carbonyl)piperidin-4-ylidene)-2-(4-(trifluoromethoxy)phenyl)acetonitrile], the inhibition at 0.5 µM in assay [1] came to 94%. In addition, the inhibition at 10 µM in assay [2] amounted to 7%; in assay [3], 22%.
For the compound `Cn1ncc2cccc(C(C#N)=C3CCN(C(=O)N4CCC(CO)CC4)CC3)c21` [Compound 118, 2-(1-(4-(hydroxymethyl)piperidine-1-carbonyl)piperidin-4-ylidene)-2-(1-methyl-1H-indazol-7-yl)acetonitrile], the inhibition at 0.5 µM in assay [1] is 96%. The results for the inhibition at 10 µM in assay [2] and in assay [3] were 14% and 30%, respectively.
As to `Cn1ncc2cccc(C(C#N)=C3CCN(C(=O)N4CCc5[nH]ncc5C4)CC3)c21` [Compound 119, 2-(1-methyl-1H-indazol-7-yl)-2-(1-(4,5,6,7-tetrahydro-1H-pyrazolo[4,3-c]pyridine-5-carbonyl)piperidin-4-ylidene)acetonitrile], in assay [1], the inhibition at 0.5 µM was 99%. Also, the inhibition at 10 µM in assay [2] was found to be 6%; in assay [3] it was 15%.
In the same order, the values of `N#CC(=C1CCN(C(=O)N2CCc3[nH]ncc3C2)CC1)c1ccc(Cl)s1` [Compound 120, 2-(5-chlorothiophen-2-yl)-2-(1-(4,5,6,7-tetrahydro-1H-pyrazolo[4,3-c]pyridine-5-carbonyl)piperidin-4-ylidene)acetonitrile] are 99%, 43% and 20%.
As for `N#CC(=C1CCN(C(=O)N2CCn3cncc3C2)CC1)c1ccc(Cl)s1` [Compound 121, 2-(5-chlorothiophen-2-yl)-2-(1-(5,6,7,8-tetrahydroimidazo[1,5-a]pyrazine-7-carbonyl)piperidin-4-ylidene)acetonitrile], in assay [1], the inhibition at 0.5 µM is 99%. Moreover, the inhibition at 10 µM in assay [2] is 32%; in assay [3], -7%.
In the same order, the values of `N#CC(=C1CCN(C(=O)N2CCc3[nH]ncc3C2)CC1)c1ccc(F)cc1F` [Compound 122, 2-(2,4-difluorophenyl)-2-(1-(4,5,6,7-tetrahydro-1H-pyrazolo[4,3-c]pyridine-5-carbonyl)piperidin-4-ylidene)acetonitrile] are 99%, 42% and 24%.
Taken in the same sequence, the figures for `N#CC(=C1CCN(C(=O)N2CCn3cncc3C2)CC1)c1ccc(F)cc1F` [Compound 123, 2-(2,4-difluorophenyl)-2-(1-(5,6,7,8-tetrahydroimidazo[1,5-a]pyrazine-7-carbonyl)piperidin-4-ylidene)acetonitrile] were 99%, 33% and 2%.

Source of the values: patent US12637471B2, “Heterocyclic compounds, compositions, methods of preparation and uses thereof” (Organon R&D Finland Ltd, priority 2021, dated 2026).
